Results from patent US20040127718A1, “Substituted imidazoles” (Novo Nordisk A/S, priority 2001, published 2004).

Columns and labels:
H3 receptor [1] = target: T1, H3 receptor (Homo sapiens, UniProt Q9Y5N1); assay: Functional Assay: cAMP accumulation (Flash Plate) in HEK293 cells expressing the human H3 receptors; assay type: cell-based; settings: cAMP accumulation stimulated with isoprenaline, h-H3-HEK 293 cells
T1 construct: expressed in transfected cells; pcDNA3)
Method: The ability of the compounds to interact with the histamine H3 receptor as agonists, inverse agonists and/or competitive antagonists, was determined by an in vitro functional assay utilizing membranes from HEK293 cell expressing the human H3 receptors.
The H3 receptor was cloned by PCR and subcloned into the pcDNA3 expression vector. Cells stably expressing the H3 receptor were generated by transfecting the H3-expression vectors into HEK 293 cells and using G418 to select for H3 clones. The h-H3-HEK 293 clones were cultured in DMEM with glutamax, 10% FCS, 1% Pen/Strep and 1 mg/ml G 418 at 37° C. and 5% CO2.
The H3 receptor expressing cells were washed once with phosphate buffered saline (PBS) and harvested using versene (GIBCO-BRL). PBS was added and the cells were centrifuged for 5 min at 188 g. The cell pellet was resuspended in stimulation buffer to a concentration of 1×10^6 cells/ml. cAMP accumulation was measured using the Flash Plate® cAMP assay (NEN™ Life Science Products). […] The plates were then sealed with plastic, shaken for 30 minutes, allowed to stand overnight, and finally the radioactivity was counted in the Cobra II auto gamma topcounter. EC50 values were calculated by non-linear regression analysis of dose response curves (6 points minimum) using GraphPad Prism. Kb values were calculated by Schild plot analysis.

H3 receptor [2] = target: T1, H3 receptor; assay: Binding Assay III: [125I]-iodoproxifan binding to membranes of h-H3-HEK 293 clones; settings: 30 pM [125I]-iodoproxifan, h-H3-HEK 293 membranes
Method: The H3 receptor was cloned by PCR and subcloned into the pcDNA3 expression vector. Cells stably expressing the H3 receptor were generated by transfecting the H3-expression vectors into HEK 293 cells and using G418 to select for H3 clones. The h-H3-HEK 293 clones were cultured in DMEM with glutamax, 10% FCS, 1% Pen/Strep and 1 mg/ml G 418 at 37° C. and 5% CO2. Before harvesting, the confluent cells were rinsed with PBS and incubated with Versene for approximately 5 minutes. The cells were flushed with PBS and DMEM and the cellsuspension collected in a tube and centrifuged for 5-10 min at 1500 rpm in a Heraeus Sepatech Megafuge 1.0. The pellet was resuspended in 10-20 vol. Hepes buffer (20 mM Hepes, 5 mM MgCl2, pH 7.1 (KOH)) and homogenized for 10-20 seconds using a Ultra-Turrax homogenizer. The homogenate was centrifuged for 30 min at 23 000 g. The pellet was resuspended in 5-10 ml Hepes buffer, homogenized 5-10 seconds with the Ultra-Turrax and centrifuged for 10 min at 23 000 g. Following this centrifugation step, the membrane pellet was resuspended in 2-4 ml Hepes buffer, homogenized with a syringe or teflonhomogenizer, and the protein concentration determined. The membranes were diluted to a protein concentration of 1-5 mg/ml in Hepes buffer, aliquoted and kept at −80° C. until use. […]

T1 sequence (Q9Y5N1 whole entry): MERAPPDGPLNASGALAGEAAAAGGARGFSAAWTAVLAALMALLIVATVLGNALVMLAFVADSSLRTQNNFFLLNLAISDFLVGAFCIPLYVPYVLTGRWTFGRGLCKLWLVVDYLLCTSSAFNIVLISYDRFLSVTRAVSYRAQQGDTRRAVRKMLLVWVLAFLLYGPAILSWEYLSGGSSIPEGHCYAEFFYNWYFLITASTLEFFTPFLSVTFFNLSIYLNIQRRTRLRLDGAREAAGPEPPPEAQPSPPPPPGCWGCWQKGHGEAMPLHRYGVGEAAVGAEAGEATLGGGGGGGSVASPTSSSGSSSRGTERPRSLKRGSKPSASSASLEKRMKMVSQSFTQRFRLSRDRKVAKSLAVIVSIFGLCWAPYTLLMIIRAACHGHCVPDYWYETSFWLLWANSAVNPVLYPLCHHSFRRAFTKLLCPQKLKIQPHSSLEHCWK

EC50 (H3 receptor [1])	IC50 (H3 receptor [2])	SMILES
< 100 nM	< 100 nM	Cc1[nH]cnc1CCCCOc1ccc2ccccc2c1 [Example 15/5, 5-Methyl-4-[4-(naphthalen-2-yloxy)-butyl]-1H-imidazole]
< 50 nM	< 50 nM	Cc1[nH]cnc1CCCOCc1cccc(I)c1 [Example 16/14, 4-[3-(3-Iodo-benzyloxy)-propyl]-5-methyl-1H-imidazole]
